Where two headings read alike, the source gives them in different places.

The source of these data is US20250255293A1, “TISSUE DECONTAMINATION AND PRESERVATION SYSTEM” (priority 2024, published 2025).

Data set [1] concerns microbial contamination of osteoarticular fracture fragments. The data set is described as follows: Quantitative microbial culture of osteoarticular fragments, colony forming units per specimen (Example 3). It is filed as cell-based. Particulars: for Colony Forming Units, mean (SD): 20 min immersion (10% povidone-iodine or 0.002% chlorhexidine). The source says:
Purpose-bred hounds (n=16) were humanely euthanized, immediately after which an open articular fracture in both elbows (n=32) was created using a captive bolt pistol. Each dog was positioned in sternal recumbency with one forelimb extended and secured in a custom made positioning apparatus. Fur was not clipped and no aseptic preparation or techniques were implemented. A captive bolt stunner pistol with a 4.75-inch penetrating pin and 1.25 grain cartridge was centered on the cranial (anterior) aspect of the distal humerus, immediately proximal to the joint. With firm pressure against the secured elbow, the pistol was discharged, and the procedure was repeated for the contralateral elbow. Soft tissues were removed aseptically and the distal humerus (n=32), proximal radius (n=32), and trochlea (n=32) were osteotomized and processed under operating room conditions in 1 of 3 ways: 1) Betadine ([…]): 0.9% saline irrigation (1 L), 10% povidone-iodine solution immersion (20 min), saline irrigation; 2) Chlorhexidine (n=42): saline irrigation, 0.002% chlorhexidine solution immersion (20 min), saline irrigation; 3) Control (n=12): untreated. Each osteoarticular fragment was placed in 200 ml of MOPS® solution (500 ml DMEM, 5 ml ITS (insulin (10 mg/L), transferrin 55 mg/L), selenium (6.7 μg/L)), 5 ml total penicillin (100 U/ml), streptomycin (100 μg/ml), amphotericin B (2.5 μg/ml), 5 ml L-glutamine (2 mM), 5 ml non-essential amino acids (0.1 mM), 1 ml ascorbic acid (50 ng/ml), and 5.46 ml dexamethasone (0.1 μM)) in a sterile container and stored under standard room temperature and humidity conditions for 7 (n=46) or 14 (n=48) days. At each time point, viable chondrocyte density (VCD) and quantitative microbial culture assessments were assayed, yielding a count of colony forming units (CFU) per specimen.
In parallel, quantitative microbial cultures were performed on the humerus, radial head, and trochlea of each dog at either 7 or 14 days. Each tissue intended for culture was placed into 18 ml thioglycollate broth and vortexed for 30 seconds. One milliliter of the broth was immediately extracted for the 1:1 dilution and placed in an Eppendorf tube. Serial 1:10 dilutions were made from that subsample and plated within an hour. The plating process comprised 10 μl of each dilution streaked semi-quantitatively onto tryptic soy agar with 5% sheep blood and reduced blood agar. All dilutions were incubated for 72 hours before counting. Additional incubation in the remaining 17 ml thioglycollate for 48 hours was performed, and 10 μl of thioglycollate was re-streaked at that time and incubated for another 72 hours. Organisms were identified via MALDI-TOF or 16S sequencing.
Univariate comparison of VCD and CFU were performed via Kruskal-Wallis and Chi-squared test. Multivariate linear regression was used, controlling for osteotomy site and storage time, to determine the correlation between processing method and VCD or CFU. Data manipulation and statistical analysis were performed using R software.

Data set [2] relates to clinically relevant bacterial species. The data set is described as follows: Quantitative microbial culture of osteoarticular fracture fragments (Example 5). The class given is cell-based, Roseomonas sp, Methylobacterium sp. Particulars: for decontamination of osteoarticular tissues based on quantitative microbial tissue cultures (in words): days 7 and 14 of MOPS storage. As for the experimental part: Skeletally mature purpose-bred research hounds (n=16) were humanely euthanized for purposes unrelated to the present study. Immediately following euthanasia, each dog was positioned in sternal recumbency with one forelimb extended and secured in a custom-made positioning apparatus. Fur was not clipped and no aseptic preparation or decontamination techniques were performed. Using a validated technique, a penetrating captive bolt stunner pistol (CASH Special, FRONTMATEC, Birmingham, United Kingdom) with a 1.25 grain cartridge was centered on the cranial (anterior) aspect of the distal humerus, immediately proximal to the elbow joint and with firm pressure against the secured elbow, the pistol was discharged, creating type 3 open distal humeral fractures. After the fractures were induced and radiographs obtained, the skin and soft tissues were aseptically removed. For each elbow (n=32), osteoarticular tissues were obtained from the distal humerus, proximal radius and proximal ulna such that 96 contaminated, devascularized, osteoarticular fracture fragments were randomly allocated to undergo treatment using one of the following protocols for comparison: 1)⋅Betadine (n=42): bulb irrigation using 1 L of 0.9% saline, followed by immersion in 10% povidone-iodine solution for 20 min, followed by bulb irrigation using 1 L of 0.9% saline; 2)⋅Chlorhexidine (n=42): bulb irrigation using 1 L of 0.9% saline, followed by immersion in 0.002% chlorhexidine gluconate solution immersion for 20 min, followed by bulb irrigation using 1 L of 0.9% saline; and 3)⋅Injured Control (n=12): no decontamination treatment. Each fragment was then immediately placed in 200 ml of Missouri Osteochondral Preservation System (MOPS®) solution in individual sterile closed containers, transported to the on-site laboratory and placed in a dedicated storage cabinet in standard room temperature and humidity conditions for 7 or 14 days.
Microbial Cultures. At days 7 (n=21) or 14 (n=21) of storage, osteoarticular fracture fragments were also collected and processed for quantitative microbial culture. […] Microorganism cultures were quantified using Colony-Forming Unit (CFU) counts per milliliter of broth. […] Post incubation, the number of colonies formed on each plate was counted. The number of CFUs per milliliter (CFU/ml) was calculated using the formula: CFU/ml=(number of colonies×dilution factor)/volume inoculated. […]
Statistical Analysis. All data were analyzed using statistical software R Studio, version 4.3.1 (Posit Software, Boston, MA, USA). Descriptive statistics for VCD, % VCD and CFU were calculated to report means, standard deviations, ranges and percentages. […]

The subject of another data set is Staphylococcus aureus. As to conditions: 20-minute immersion in 2% chlorhexidine, grossly contaminated bone segments; cited from earlier work.
The subject of data set [3] is contaminated osteochondral tissues. As to conditions: 10% povidone-iodine or 0.4% chlorhexidine, 20-minute immersion; cited from earlier work.
For the next data set, the system named is human chondrocyte. Particulars: cited from earlier work.

With `[H]/N=C(\N/C(=N/[H])NCCCCCCNC(=N)NC(=N)Nc1ccc(Cl)cc1)Nc1ccc(Cl)cc1` [Chlorhexidine, chlorhexidine gluconate], the entries for the “mean CFU” value in data set [1] (at 7 days) and in data set [1] (at 14 days) were 0.4 and 7.9, respectively. Further, the “decrease of CFU relative to control treatment” value in data set [1] (multivariate linear regression, controlling for osteotomy site and storage timing) is 15.8×10^6 CFU. The “decontamination of osteoarticular fracture fragments (in words)” value in data set [1] (saline irrigation, 0.002% chlorhexidine immersion, room temperature storage in MOPS) is on record as “effective for decontaminating osteoarticular fracture fragments”. For the same compound, the “Colony Forming Units, mean (SD)” value in data set [1] (storage time 7 days in MOPS at room temperature) was 0.4 (1.8) 10^6 per specimen; in data set [1] (storage time 14 days in MOPS at room temperature), 7.9 (14.2) 10^6 per specimen. Also, the “CFUs for clinically relevant bacterial species” value in data set [2] (days 7 and 14) is “No CFUs”. Moreover, the “decontamination of osteoarticular tissues based on quantitative microbial tissue cultures (in words)” value is on record as “effective at decontamination” in data set [2], “effectively decontaminated” in data set [2] (listed as chlorhexidine) and “effective for decontaminating” in data set [2] (listed as chlorhexidine gluconate). The “removal of Staphylococcus aureus burden” value in the data set with Staphylococcus aureus is reported as more than 99%. Also, the “decontamination of contaminated osteochondral tissues” value in data set [3] is on record as “effective at fully decontaminating”. In addition, the “chondrocyte viability after treatment” value in the data set on human chondrocyte (0.002% chlorhexidine gluconate, 7 days in tissue culture, listed as Chlorhexidine Gluconate) is “preserving chondrocyte viability for up to 7 days”; in the data set with human chondrocyte (0.002% chlorhexidine gluconate, 7 days in tissue culture, listed as chlorhexidine gluconate), “maintain chondrocyte viability at day-0 level for 7 days”; in the data set with human chondrocyte (higher concentrations of CHG than 0.002%) it was “significant chondrocyte viability loss within 24 hours”.
